According to patent US7595401B2, “Therapeutic compounds and their use in cancer” (Myriad Pharmaceuticals, Inc., priority 2006, dated 2009):

Target: purified human Hsp90
Experiment: Binding Assay: fluorescence polarization with BODIPY-labeled geldanamycin
Settings: BODIPY-GM 10 nM, Hsp90 30 nM
How it was run: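 Fluorescence polarization competition with BODIPY-geldanamycin (10 nM final) and human Hsp90 (30 nM final) in HEPES-KOH pH 7.3 buffer with molybdate, NP-40, DTT; 2% DMSO, overnight at room temperature. Read 485/530 nm; percent inhibition from mP normalized to DMSO controls, fluorescent-compound points excluded.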

| Compound | IC50 | % Inhibition at 5 μM Compound Concentration |
| --- | --- | --- |
| CC(C)[C@H]1C[C@H](CCn2c(Sc3cc4c(cc3Br)OCO4)nc3c(N)ncnc32)CCN1C(=O)OC(C)(C)C (relative stereo) [Example 428, tert-Butyl trans-4-(2-{6-amino-8-[(6-bromo-1,3-benzodioxol-5-yl)thio]-9H-purin-9-yl}ethyl)-2-isopropylpiperidine-1-carboxylate] | > 8000 nM | – |
| CN[C@@H](C)C(=O)N1CCC(CCn2c(Sc3cc4c(cc3Br)OCO4)nc3c(N)ncnc32)CC1 [Example 749, 8-[(6-Bromo-1,3-benzodioxol-5-yl)thio]-9-(2-{1-[(2S)-2-(methylamino)propanoyl]piperidin-4-yl}ethyl)-9H-purin-6-amine] | 330 nM | – |
| CC(C)(C)OC(=O)N1CCCCC1CCCn1c(Sc2cc3c(cc2Br)OCO3)nc2c(N)ncnc21 (centres unmarked) [Example 638, tert-Butyl 2-(3-{6-amino-8-[(6-bromo-1,3-benzodioxol-5-yl)thio]-9 H-purin-9-yl}propyl)piperidine-1-carboxylate] | > 25000 nM | – |
| COc1cc(Br)c(Sc2nc3c(N)ncnc3n2CCC2CCN(C(C)=O)CC2)cc1OC [Example 565, 9-[2-(1-Acetylpiperidin-4-yl)ethyl]-8-[(2-bromo-4,5-dimethoxyphenyl)thio]-9 H-purin-6-] | > 5000 nM | – |
| Nc1ncn(CCc2c(F)cccc2Cl)c2nc(Sc3cc4c(cc3Br)OCO4)nc1-2 [Example 131, 8-(6-bromo-benzo[1,3]dioxol-5-ylsulfanyl)-3-[2-(2-chloro-6-fluoro-phenyl)-ethyl]-3H-purin-6-ylamine] | – | 18% |
| Nc1ncnc2c1nc(Sc1cc3c(cc1Br)OCO3)n2CCC1CCCN(CC(F)(F)F)C1 (centres unmarked) [Example 577, 8-[(6-Bromo-1,3-benzodioxol-5-yl)thio]-9-{2-[1-(2,2,2-trifluoroethyl)piperidin-3-yl]ethyl}-9 H-purin-6-amine] | 140 nM | – |
| CC(C)[C@H](NC(=O)OC(C)(C)C)C(=O)N1CCCC(CCn2c(Sc3cc4c(cc3Br)OCO4)nc3c(N)ncnc32)C1 (stereo partly drawn) [Example 697, tert-Butyl((1S)-1-{[3-(2-{6-amino-8-[(6-bromo-1,3-benzodioxol-5-yl)thio]-9H-purin-9-yl}ethyl)piperidin-1-yl]carbonyl}-2-methylpropyl)-carbamate] | 600 nM | – |
| CCCCNC(=O)Nc1ccc(CCn2c(Sc3cc4c(cc3Br)OCO4)nc3c(N)ncnc32)cc1 [Example 281, N-[4-(2-{6-Amino-8-[(6-bromo-1,3-benzodioxol-5-yl)thio]-9H-purin-9-yl}ethyl)phenyl]-N′-butylurea] | 120 nM | – |
| COc1ccc(C#N)cc1Sc1nc2c(N)ncnc2n1CCc1ccccc1 [Example 304, 3-{[6-Amino-9-(2-phenylethyl)-9H-purin-8-yl]thio}-4-methoxybenzonitrile] | > 25000 nM | – |
| C[C@@H](N)C(=O)N1CCC[C@@H](CCn2c(Sc3cc4c(cc3Br)OCO4)nc3c(N)ncnc32)C1 [Example 755, 9-(2-{(3S)-1-[(2R)-2-Aminopropanoyl]piperidin-3-yl}ethyl)-8-[(6-bromo-1,3-benzodioxol-5-yl)thio]-9H-purin-6-amine] | 140 nM | – |
| COc1ccc(OC)c(Sc2nc3c(N)ncnc3n2CCN2CCN(C3CCCC3)CC2)c1 [Example 494, 9-[2-(4-Cyclopentylpiperazin-1-yl)ethyl]-8-[(2,5-dimethoxyphenyl)thio]-9 H-purin-6-amine] | 5500 nM | – |
| Nc1ncn(CCC23CC4CC(CC(C4)C2)C3)c2nc(Sc3cc4c(cc3Br)OCO4)nc1-2 [Example 357, 3-[2-(1-Adamantyl)ethyl]-8-[(6-bromo-1,3-benzodioxol-5-yl)thio]-3H-purin-6-amine] | – | 0% |
| COc1ccc(C2(Cn3cnc(N)c4nc(Sc5cc6c(cc5Br)OCO6)nc3-4)CC2)cc1 [Example 60, 8-(6-bromo-benzo[1,3]dioxol-5-ylsulfanyl)-3-[1-(4-methoxy-phenyl)-cyclopropylmethyl]-3H-purin-6-ylamine] | – | 30% |
| Nc1ncnc2c1nc(Sc1cc3c(cc1Br)OCO3)n2CCC1CCCN1C(=O)OCc1ccccc1 (centres unmarked) [Example 419, Benzyl 2-(2-{6-amino-8-[(6-bromo-1,3-benzodioxol-5-yl)thio]-9H-purin-9-yl}ethyl)pyrrolidine-1-carboxylate] | 2900 nM | – |
| COc1ccc(I)c(Sc2nc3c(N)ncnc3n2CCc2ccccc2)c1 [Example 322, 8-[(2-Iodo-5-methoxyphenyl)thio]-9-(2-phenylethyl)-9H-purin-6-amine] | 100 nM | – |
| CC(C)(C)OC(=O)N1CCCC[C@@H]1CCn1cnc(N)c2nc(Sc3cc4c(cc3Br)OCO4)nc1-2 [Example 395, tert-Butyl (2R)-2-(2-{6-amino-8-[(6-bromo-1,3-benzodioxol-5-yl)thio]-3H-purin-3-yl}ethyl)piperidine-1-carboxylate] | – | 0% |
| Cc1ncsc1CCn1c(Sc2cc3c(cc2Br)OCO3)nc2c(N)ncnc21 [Example 330, 8-[(6-Bromo-1,3-benzodioxol-5-yl)thio]-9-[2-(4-methyl-1,3-thiazol-5-yl)ethyl]-9H-purin-6-amine] | 70 nM | – |
| CC(C)N1CCC(CCn2c(Sc3cc4c(cc3Br)OCO4)nc3ncnc(N)c32)CC1 [Example 583, 8-[(6-Bromo-1,3-benzodioxol-5-yl)thio]-7-[2-(1-isopropylpiperidin-4-yl)ethyl]-7 H-purin-6-amine] | – | 55.00% |

| Compound | IC50 | % Inhibition at 5 μM Compound Concentration |
| --- | --- | --- |
| CC1(C)C(C(=O)N2CCC(CCn3c(Sc4cc5c(cc4Br)OCO5)nc4c(N)ncnc43)CC2)C1(C)C [Example 520, 8-[(6-Bromo-1,3-benzodioxol-5-yl)thio]-9-(2-{1-[(2,2,3,3-tetramethylcyclopropyl)carbonyl]piperidin-4-yl}ethyl)-9 H-purin-6-amine] | > 2000 nM | – |
| Nc1ncn(CCc2ccccc2Cl)c2nc(Sc3cc4c(cc3Br)OCCO4)nc1-2 [Example 234, 8-[(7-Bromo-2,3-dihydro-1,4-benzodioxin-6-yl)thio]-3-[2-(2-chlorophenyl)ethyl]-3H-purin-6-amine] | – | 0% |
| CS(=O)(=O)N1CCC(CCn2c(Sc3cc4c(cc3Br)OCO4)nc3c(N)ncnc32)CC1 [Example 378, 8-[(6-Bromo-1,3-benzodioxol-5-yl)thio]-9-{2-[1-(methylsulfonyl)piperidin-4-yl]ethyl}-9H-purin-6-amine] | 240 nM | – |
| CC(C)C(Cn1cnc(N)c2nc(Sc3cc4c(cc3Br)OCO4)nc1-2)c1ccccc1 (centres unmarked) [Example 127, 8-(6-bromo-benzo[1,3]dioxol-5-ylsulfanyl)-3-(3-methyl-2-phenyl-butyl)-3H-purin-6-ylamine] | – | 51% |
| COc1cc(Sc2nc3c(N)ncnc3n2CCC2CCN(C=O)CC2)c(OC)cc1Cl [Example 558, 4-(2-{6-Amino-8-[(4-chloro-2,5-dimethoxyphenyl)thio]-9 H-purin-9-yl}ethyl)piperidine-1-carbaldehyde] | > 5000 nM | – |
| COc1ccc(OC)c(Sc2nc3c(N)ncnc3n2CCc2cccc(F)c2F)c1 [Example 145, 9-[2-(2,3-Difluoro-phenyl)-ethyl]-8-(2,5-dimethoxy-phenylsulfanyl)-9H-purin-6-ylamine] | > 3000 nM | – |
| Nc1ncnc2c1nc(Sc1cc3c(cc1Br)OCO3)n2CC(O)c1ccc(Cl)cc1Cl (centres unmarked) [Example 177, 2-[6-Amino-8-(6-bromo-benzo[1,3]dioxol-5-ylsulfanyl)-purin-9-yl]-1-(2,4-dichloro-phenyl)-ethanol] | – | 0% |
| Nc1ncnc2c1nc(Sc1ncccc1Br)n2CCC1CCN(C=O)CC1 [Example 550, 4-(2-{6-Amino-8-[(3-bromopyridin-2-yl)thio]-9 H-purin-9-yl}ethyl)piperidine-1-carbaldehyde] | > 5000 nM | – |
| Nc1ncnc2c1nc(Sc1nc3cccc(Cl)c3s1)n2CCC1CCN(C=O)CC1 [Example 661, 4-(2-{6-Amino-8-[(7-chloro-1,3-benzothiazol-2-yl)thio]-9H-purin-9yl}-ethyl)-piperidin-1-carbaldehyde] | 60 nM | – |
| CCNC(=O)N1CCCC(CCn2c(Sc3cc4c(cc3Br)OCO4)nc3c(N)ncnc32)C1 (centres unmarked) [Example 435, 3-(2-{6-Amino-8-[(6-bromo-1,3-benzodioxol-5-yl)thio]-9H-purin-9-yl}ethyl)-N-ethylpiperidine-1-carboxamide] | 195 nM | – |
| CCNC(=O)N1CCCC(CCn2cnc(N)c3nc(Sc4cc5c(cc4Br)OCO5)nc2-3)C1 (centres unmarked) [Example 440, 3-(2-{6-Amino-8-[(6-bromo-1,3-benzodioxol-5-yl)thio]-3H-purin-3-yl}ethyl)-N-ethylpiperidine-1-carboxamide] | – | 60% |
| Nc1ncn(CCc2cccc(F)c2F)c2nc(Sc3cc4c(cc3Br)OCO4)nc1-2 [Example 162, 8-(6-bromo-benzo[1,3]dioxol-5-ylsulfanyl)-3-[2-(2,3-difluoro-phenyl)-ethyl]-3H-purin-6-ylamine] | – | 0% |
| Nc1ncnc2c1nc(Sc1cc3c(cc1Br)OCO3)n2CCc1ccsc1 [Example 201, 8-(6-Bromo-benzo[1,3]dioxol-5-ylsulfanyl)-9-(2-thiophen-3-yl-ethyl)-9H-purin-6-ylamine] | 72 nM | – |
| COc1ccc(OC)c(Sc2nc3c(N)ncnc3n2CCc2ccccc2Br)c1 [Example 141, 9-[2-(2-Bromo-phenyl)-ethyl]-8-(2,5-dimethoxy-phenylsulfanyl)-9H-purin-6-ylamine] | 40 nM | – |
| CC(=O)N1CCC(CCn2c(Sc3nc4ccccc4s3)nc3c(N)ncnc32)CC1 [Example 659, 9-[2-(1-Acetylpiperidin-4-yl)ethyl]-8-(1,3-benzothiazol-2-ylthio)-9H-purin-6-amine] | 4000 nM | – |
| COc1cc(Sc2nc3c(N)ncn(CCC4CCN(C=O)CC4)c-3n2)c2ocnc2c1 [Example 535, 4-(2-{6-Amino-8-[(5-methoxy-1,3-benzoxazol-7-yl)thio]-3 H-purin-3-yl}ethyl)piperidine-1-carbaldehyde] | – | 1.00% |
| COc1cc(F)c(Sc2nc3c(N)ncnc3n2CCC2CCN(C(C)=O)CC2)cc1F [Example 559, 9-[2-(1-Acetylpiperidin-4-yl)ethyl]-8-[(2,5-difluoro-4-methoxyphenyl)thio]-9 H-purin-6-amine] | > 5000 nM | – |
